Experiment [1] deals with T1, Jack Bean Urease (Canavalia ensiformis, UniProt P07374). The experiment can be described thus: biochemical. Also noted: Jack bean urease inhibition, ammonia release by indophenol method, absorbance at 625 nm. On the procedure: The enzyme responsible for catalyzing urea, known as urease, helps for the conversion of urea into carbon dioxide (CO2) through hydrolysis. To monitor the production of ammonia (NH3) and inhibit urease activity, we employed the indophenol method.[42] In the reaction mixture, consisting of Jack Bean Urease (200 μL), a buffer with a pH of 8.25 (400 μL, composed of 0.5 mM EDTA, 0.02 M K2HPO4, 0.02 M LiCl, and 120 mM urea), and test compounds (100 μL), incubation was carried out at 25 °C for approximately 30 minutes. […] In the realm of scientific investigation, thiourea functions as a benchmark inhibitor. The determination of the IC50 values entails subjecting both standard and synthesized compounds to varying concentrations under identical experimental conditions.[43,44] […] Thiourea was used as a reference point to assess the effects of substituents about the pyrido[2,3-b]pyrazine based scaffold on their urease inhibitory potential.
T1 sequence (P07374 whole entry): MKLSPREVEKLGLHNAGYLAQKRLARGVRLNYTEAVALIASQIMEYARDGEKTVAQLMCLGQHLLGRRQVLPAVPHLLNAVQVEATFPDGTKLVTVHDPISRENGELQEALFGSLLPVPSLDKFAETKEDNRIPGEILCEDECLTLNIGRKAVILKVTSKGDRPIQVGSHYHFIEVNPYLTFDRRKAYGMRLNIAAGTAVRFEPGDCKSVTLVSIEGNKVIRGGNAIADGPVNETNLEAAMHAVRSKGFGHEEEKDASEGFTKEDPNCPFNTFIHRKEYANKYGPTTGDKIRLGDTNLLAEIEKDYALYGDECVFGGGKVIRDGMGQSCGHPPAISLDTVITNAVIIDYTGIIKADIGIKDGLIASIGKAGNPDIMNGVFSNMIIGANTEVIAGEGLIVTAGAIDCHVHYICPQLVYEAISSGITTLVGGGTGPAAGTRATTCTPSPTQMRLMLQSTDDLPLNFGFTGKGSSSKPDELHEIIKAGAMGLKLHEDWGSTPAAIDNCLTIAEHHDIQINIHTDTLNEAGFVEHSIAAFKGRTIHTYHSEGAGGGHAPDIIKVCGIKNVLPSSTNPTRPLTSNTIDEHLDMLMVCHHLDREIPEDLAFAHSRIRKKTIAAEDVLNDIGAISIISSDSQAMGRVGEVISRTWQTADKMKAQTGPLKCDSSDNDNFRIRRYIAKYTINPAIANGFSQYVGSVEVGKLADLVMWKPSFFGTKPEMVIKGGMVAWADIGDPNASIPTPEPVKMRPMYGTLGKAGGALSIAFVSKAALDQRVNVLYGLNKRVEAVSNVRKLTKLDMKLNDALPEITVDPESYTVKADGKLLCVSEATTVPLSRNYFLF

The target of experiment [2] is T1, Jack Bean Urease. The experiment can be described thus: indophenol urease inhibition assay (ammonia release, […] nm). In kind it is biochemical. From the text:
The determination of the IC50 values entails subjecting both standard and synthesized compounds

Molecules are shown by their SMILES.

The term IC50 denotes the concentration that gives 50% inhibition. Read a low IC50 as inhibition by little substance.

`O=Cc1ccc(C2C3=C(Nc4nccnc42)c2ccccc2C3=O)cc1` (centres unmarked) [compound 4] came in with an IC50 on Jack Bean Urease [1] of 6.79 ± 0.92 µM.

The compound `O=C1C2=C(Nc3nccnc3C2c2ccc(Cl)cc2)c2ccccc21` (centres unmarked) [compound 5] had an IC50 against Jack Bean Urease [2] of 4.12 ± 1.18 µM.

As for `O=C1C2=C(Nc3nccnc3C2c2ccc([N+](=O)[O-])cc2)c2ccccc21` (centres unmarked) [compound 6], the 50% inhibitory concentration (IC50) at Jack Bean Urease [1] is 4.77 ± 0.92 µM.

For the compound `COc1ccc(C2C3=C(Nc4nccnc42)c2ccccc2C3=O)cc1` (centres unmarked) [compound 7], the IC50 against Jack Bean Urease [1] was 11.9 ± 0.34 µM.

With `NC(N)=S` [thiourea], it took 1.94 ± 0.36 µM to reach half-maximal inhibition against Jack Bean Urease [1] (IC50). Compared with the last compound, the IC50 is about 6.1-fold lower.

Values taken from PMC10619479, “Multicomponent synthesis of pyrido[2,3-b]pyrazine derivatives: electrochemical DNA sensing, nonlinear optical properties and biological activity” (RSC Advances, 2023).
